Assay results from patent US20250205181A1 (CZAP RESEARCH AND DEVELOPMENT, LLC, priority 2021, published 2025).

What was measured:
[1] = target: CB2 receptor (Mus musculus, UniProt P47936); conditions: literature value, Lin et al., J Med Chem 1998; cited from earlier work
[2] = Self-reported erectogenic effect / blood flow when tumescent in subject (Examples 1 and 2); type: in vivo, human; conditions: in conjunction with the 25 mg dosing of the anandamide CD formulation
Experimental: The subject had been taking various amounts of sildenafil for many years at 10-25 mg increments.
The subject of Example 1 determined that the combined use of these formulations permitted controlled dosing with bolus and/extended release regimens.

Chain of CB2 receptor (P47936 whole entry): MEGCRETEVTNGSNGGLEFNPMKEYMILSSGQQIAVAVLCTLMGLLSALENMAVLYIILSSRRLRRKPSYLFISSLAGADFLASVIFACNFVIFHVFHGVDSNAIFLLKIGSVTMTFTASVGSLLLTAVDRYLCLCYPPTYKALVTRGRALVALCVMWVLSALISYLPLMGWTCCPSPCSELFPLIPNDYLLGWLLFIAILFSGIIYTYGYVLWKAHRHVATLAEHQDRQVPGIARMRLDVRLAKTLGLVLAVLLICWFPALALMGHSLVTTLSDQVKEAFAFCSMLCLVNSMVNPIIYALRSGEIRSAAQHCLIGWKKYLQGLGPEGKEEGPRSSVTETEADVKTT

SMILES	Ki [1] [nM]	effect of 10 mg sildenafil in conjunction with anandamide CD versus 25 mg sildenafil before anandamide CD supplementation [2]
CCCCC/C=C\C/C=C\C/C=C\C/C=C\CCCC(=O)NCCO [anandamide, (5Z,8Z,11Z,14Z)-N-(2-hydroxyethyl)icosa-5,8,11,14-tetraenamide]	> 1000	
CCCc1nn(C)c2c(=O)[nH]c(-c3cc(S(=O)(=O)N4CCN(C)CC4)ccc3OCC)nc12 [sildenafil]		more noticeable results
